Drawing on ChEMBL document CHEMBL3232945 (Eur J Med Chem, 2014), this text covers Activity and Time for 2 compounds.

Each structure is given as a SMILES string.

For data set [1], the system named is Rattus norvegicus. The data set can be described thus: Antihypertensive activity in Wistar rat assessed as mean arterial pressure at 10 mg/kg, ip measured immediately at 15 mins (reference value: 195.68 +/- 1.623 mmHg). The format is functional, Artery. The settings on record: route intraperitoneal.
Data set [2] has as its system Rattus norvegicus. The data set can be described thus: Antihypertensive activity in Wistar rat assessed as mean arterial pressure at 10 mg/kg, ip measured immediately at 45 mins (reference value: 193.96 +/- 0.865 mmHg). The data set is classed as functional, Artery. The settings on record: route intraperitoneal.
In data set [3] the test system is Rattus norvegicus. The data set can be described thus: Toxicity in […] normotensive Wistar rat assessed as mean arterial pressure at 10 mg/kg, ip after 30 mins (reference value: 94.68 +/- 1.213 mmHg). The data set is classed as organism-based, Artery. Also noted: dose 10 mg/kg, route intraperitoneal. The settings on record: in vivo, 0.5 h.
In data set [4] the test system is Rattus norvegicus. As to the kind of experiment: Antihypertensive activity in Wistar rat assessed as mean arterial pressure at 10 mg/kg, ip measured immediately at 30 mins (reference value: 194.72 +/- 1.002 mmHg). The format is functional, Artery. The settings on record: route intraperitoneal.
The subject of data set [5] is Rattus norvegicus. The data set can be described thus: Toxicity in […] normotensive Wistar rat assessed as mean arterial pressure at 10 mg/kg, ip after 45 mins (reference value: 94.83 +/- 0.943 mmHg). The settings on record: in vivo, 0.75 h. Also noted: dose 10 mg/kg, route intraperitoneal. The data set is classed as organism-based, Artery.
Data set [6] deals with Rattus norvegicus. As to the kind of experiment: Toxicity in […] normotensive Wistar rat assessed as mean arterial pressure at 10 mg/kg, ip after 60 mins (reference value: 95.07 +/- 1.973 mmHg). The data set is classed as organism-based, Artery. Also noted: dose 10 mg/kg, route intraperitoneal. The settings on record: in vivo, 1 h.
Data set [7] deals with Rattus norvegicus. As to the kind of experiment: Antihypertensive activity in Wistar rat assessed as mean arterial pressure at 10 mg/kg, ip measured immediately at 0 min (reference value: 194.08 +/- 1.962 mmHg). The format is functional, Artery. To be noted: route intraperitoneal.
The test system of data set [8] is Rattus norvegicus. The data set can be described thus: Toxicity in […] normotensive Wistar rat assessed as mean arterial pressure at 10 mg/kg, ip measured immediately at 0 min (reference value: 94.21 +/- 2.065 mmHg). The format is organism-based, Artery. Also noted: dose 10 mg/kg, route intraperitoneal. To be noted: in vivo, 0 h.
The subject of data set [9] is Rattus norvegicus. As to the kind of experiment: Antihypertensive activity in Wistar rat assessed as mean arterial pressure at 10 mg/kg, ip measured immediately at 60 mins (reference value: 195.11 +/- 0.531 mmHg). To be noted: route intraperitoneal. The data set is classed as functional, Artery.
In data set [10] the test system is Rattus norvegicus. The data set can be described thus: Toxicity in […] normotensive Wistar rat assessed as mean arterial pressure at 10 mg/kg, ip after 15 mins (reference value: 93.81 +/- 1.543 mmHg). The data set is classed as organism-based, Artery. Also noted: dose 10 mg/kg, route intraperitoneal. To be noted: in vivo, 0.25 h.
Data set [11] has as its system Rattus norvegicus. The data set can be described thus: Toxicity in anesthetized-normotensive Wistar rat assessed as heart rate at 15 mg/kg, ip after 15 mins (reference value: 313.93 +/- 9.912 bpm). The format is organism-based. Also noted: dose 15 mg/kg, route intraperitoneal. To be noted: in vivo, 0.25 h.
Data set [12] deals with Rattus norvegicus. As to the kind of experiment: Toxicity in anaesthetized-Wistar rat assessed as Q-T ECG interval at 15 mg/kg, ip after 45 mins (reference value: 78.8 +/- 0.927 ms). The data set is classed as organism-based. Also noted: dose 15 mg/kg, route intraperitoneal. The settings on record: in vivo, 0.75 h.
Data set [13] has as its system Rattus norvegicus. As to the kind of experiment: Antiarrhythmic activity in barium chloride-induced Wistar rat assessed as increase in appearance time of arrhythmia at 15 mg/kg, ip administered 60 mins before barium chloride challenge (reference value: 129.4 +/- 4.373 sec). The format is functional, Heart. The settings on record: route intraperitoneal.
The test system of data set [14] is Rattus norvegicus. As to the kind of experiment: Toxicity in anesthetized-normotensive Wistar rat assessed as heart rate at 15 mg/kg, ip measured immediately at 0 min (reference value: 316.62 +/- 9.643 bpm). The format is organism-based. Also noted: dose 15 mg/kg, route intraperitoneal. To be noted: in vivo, 0 h.
Data set [15] deals with Rattus norvegicus. As to the kind of experiment: Antiarrhythmic activity in barium chloride-induced Wistar rat assessed as increase in mortality time at 15 mg/kg, ip administered 60 mins before barium chloride challenge (reference value: 682.8 +/- 9.656 secs). To be noted: route intraperitoneal. The data set is classed as functional, Heart.
The test system of data set [16] is Rattus norvegicus. The data set can be described thus: Toxicity in anesthetized-normotensive Wistar rat assessed as heart rate at 15 mg/kg, ip after 60 mins (reference value: 314.96 +/- 9.442 bpm). The format is organism-based. Also noted: dose 15 mg/kg, route intraperitoneal. To be noted: in vivo, 1 h.
The subject of data set [17] is Rattus norvegicus. As to the kind of experiment: Toxicity in anaesthetized-Wistar rat assessed as Q-T ECG interval at 15 mg/kg, ip after 60 mins (reference value: 79.7 +/- 0.965 ms). Also noted: dose 15 mg/kg, route intraperitoneal. To be noted: in vivo, 1 h. The data set is classed as organism-based.
Data set [18] relates to Rattus norvegicus. The data set can be described thus: Toxicity in anesthetized-normotensive Wistar rat assessed as heart rate at 15 mg/kg, ip after 30 mins (reference value: 317.68 +/- 7.631 bpm). The format is organism-based. The settings on record: in vivo, 0.5 h. Also noted: dose 15 mg/kg, route intraperitoneal.

For `CC(C)NCC(O)COc1cccc2ccccc12` (stereo not drawn) [PROPRANOLOL], the Activity in the data set on Rattus norvegicus [1] amounted to 171.73 mmHg; with Rattus norvegicus [2] it was 120.32 mmHg; in the data set on Rattus norvegicus [3], 62.96 mmHg; in the data set with Rattus norvegicus [4] it was 148.53 mmHg; in the data set on Rattus norvegicus [5], 65.87 mmHg; in the data set with Rattus norvegicus [6], 70.21 mmHg. For the same compound, the Activity is 195.12 mmHg in the data set on Rattus norvegicus [7], 92.56 mmHg in the data set on Rattus norvegicus [8], 152.26 mmHg in the data set with Rattus norvegicus [9] and 79.43 mmHg with Rattus norvegicus [10].

In the case of `C=C[C@H]1CN2CC[C@H]1C[C@@H]2[C@@H](O)c1ccnc2ccc(OC)cc12` [QUINIDINE], the Activity is 285.16 bpm in the data set with Rattus norvegicus [11]; 91.3 min with Rattus norvegicus [12]; 311.8 bpm with Rattus norvegicus [14]; 286.32 bpm in the data set with Rattus norvegicus [16]; 90.6 ms in the data set with Rattus norvegicus [17]; 246.18 bpm in the data set with Rattus norvegicus [18]. Moreover, the Time stood at 394.8 s in the data set on Rattus norvegicus [13] and 1281.8 s with Rattus norvegicus [15].
